Results published in patent publication US11806342B2, “Diiodohydroxyquinoline for the treatment of clostridium difficile infection” (Purdue Research Foundation, priority 2019, dated 2023).
Where a name gives a salt, the structure may show the parent alone. Read-outs that look alike come from different tables or passages of the source.

How the values were obtained:
[1] = system: C. difficile ATCC 43255; assay: Initial screening of antiparasitic drugs, broth microdilution MIC; format: cell-based, Clostridium difficile
Procedure: (§1) C. difficile strains were grown anaerobically on brain heart infusion supplemented (BHIS) agar plates at 37° C. for 48 hours. Afterwards, a bacterial solution equivalent to 0.5 McFarland standard was prepared and diluted in (BHIS) broth to achieve a bacterial concentration of about 5×10^5 CFU/mL. Drugs were added and serially diluted along the plates. Plates were then, incubated anaerobically at 37° C. for 48 hours. MICs reported in Table (1) are the minimum concentrations of the drugs that could completely suppress the visual growth of bacteria.

[2] = system: C. difficile ATCC BAA-1870; assay: as above; format: cell-based, Clostridium difficile
Procedure: as §1

[3] = Clostridioides difficile, ATCC43255
[4] = Clostridioides difficile, ATCC43255, initial screening, C. difficile ATCC 43255, read-out: MIC
[5] = Clostridioides difficile, initial screening, C. difficile ATCC BAA 1870, read-out: MIC

CCCSc1ccc2nc(NC(=O)OC)[nH]c2c1 [Albendazole, albendazole]
MIC [1, 3]: > 128 µg/mL
MIC ([2]; Clostridioides difficile): > 128 µg/mL

CC(C)OC(=O)Nc1ccc2nc(-c3cscn3)[nH]c2c1 [Cambendazole, cambendazole]
MIC ([1]; initial screening, C. difficile ATCC 43255): >128 µg/mL
MIC ([2]; initial screening, C. difficile ATCC BAA 1870): >128 µg/mL

COC(=O)Nc1nc2ccc(C(=O)c3ccccc3)cc2[nH]1 [Mebendazole, mebendazole]
MIC [1, 4]: > 128 µg/mL
MIC [2, 5]: > 128 µg/mL

NC[C@@H]1O[C@H](O[C@H]2[C@@H](O)[C@H](O[C@@H]3[C@@H](O)[C@H](N)C[C@H](N)[C@H]3O[C@H]3O[C@H](CO)[C@@H](O)[C@H](O)[C@H]3N)O[C@@H]2CO)[C@H](N)[C@@H](O)[C@@H]1O [Paromomycin, paromomycin sulfate]
MIC [1, 4]: > 128 µg/mL
MIC [2, 5]: > 128 µg/mL

O=C(C1CCCCC1)N1CC(=O)N2CCc3ccccc3C2C1 (stereo not drawn) [Praziquantel, praziquantel]
MIC [1, 4]: > 128 µg/mL
MIC [2, 5]: > 128 µg/mL

CN1CCCN=C1/C=C/c1cccs1 [Pyrantel Pamoate, pyrantel pamoate]
MIC [1, 4]: > 128 µg/mL
MIC [2, 5]: > 128 µg/mL

CCc1nc(N)nc(N)c1-c1ccc(Cl)cc1 [Pyrimethamine, pyrimethamine]
MIC [1, 4]: > 128 µg/mL
MIC [2, 5]: > 128 µg/mL

CCC[S+]([O-])c1ccc2[nH]c(NC(=O)OC)nc2c1 (stereo not drawn) [Ricobendazole, ricobendazole]
MIC [1, 3]: > 128 µg/mL
MIC ([2]; Clostridioides difficile): > 128 µg/mL

c1ccc2[nH]c(-c3cscn3)nc2c1 [Thiabendazole, thiabendazole]
MIC [1, 4]: > 128 µg/mL
MIC [2, 5]: > 128 µg/mL
